Structures are written as SMILES.

The test system of one assay is 8XTBD luciferase reporter (YAP) in HEK293T cells. As to the kind of experiment: YAP Reporter Assay. It counts as cell-based. The settings on record: Homo sapiens, HEK-293T; HEK293T cells stably transfected with 8XTBD luciferase reporter and pRLTK; 24-hr incubation; top concentration 3 μM; read-out: Firefly Luciferase IC50. On the technique in general: Reporter assays use an easily measured gene product as a stand-in for the process of interest.
Regarding `OC(c1nnc(-c2ccccc2Nc2ccc(C(F)(F)F)cc2)o1)C(F)(F)F` (stereo not drawn) [Compound 51, 2,2,2-trifluoro-1-(5-(2-((4-(trifluoromethyl)phenyl)amino)phenyl)-1,3,4-oxadiazol-2-yl)ethanol], the IC50 is less than 100 nM.
As for `C=Cc1nnc(-c2ccccc2Nc2ccc(C(F)(F)F)cc2)o1` [Compound 123, N-(4-(trifluoromethyl)phenyl)-2-(5-vinyl-1,3,4-oxadiazol-2-yl)aniline], the IC50 was less than 100 nM.
On the same count and under the same terms, as for `N#CN1CCCC1c1nnc(-c2ccccc2Nc2ccc(C(F)(F)F)cc2)o1` (stereo not drawn) [Compound 171, 2-(5-(2-((4-(trifluoromethyl)phenyl)amino)phenyl)-1,3,4-oxadiazol-2-yl)pyrrolidine-1-carbonitrile], the figure is less than 100 nM; as for `FC(F)(F)c1ccc(Nc2ccccc2-c2nnc(C3(F)CC3)o2)cc1` [Compound 63, 2-(5-(1-fluorocyclopropyl)-1,3,4-oxadiazol-2-yl)-N-(4-(trifluoromethyl)phenyl) aniline], 1000 to 5000 nM; as for `OC(CBr)c1nnc(-c2ccccc2Nc2ccc(C(F)(F)F)cc2)o1` (stereo not drawn) [Compound 121, 2-bromo-1-(5-(2-((4-(trifluoromethyl)phenyl)amino)phenyl)-1,3,4-oxadiazol-2-yl)ethan-1-ol], less than 100 nM.
Same read-out and setting: as for `CCC(C)(O)c1nnc(-c2ccccc2Nc2ccc(C(F)(F)F)cc2)o1` (stereo not drawn) [Compound 135, 2-(5-(2-((4-(trifluoromethyl)phenyl)amino)phenyl)-1,3,4-oxadiazol-2-yl)butan-2-ol], the figure is less than 100 nM.
Same read-out and setting: as for `COCC(C)NC(=O)c1nnc(-c2ccccc2Nc2ccc(C(F)(F)F)cc2)o1` (stereo not drawn) [Compound 188, N-(1-methoxypropan-2-yl)-5-(2-((4-(trifluoromethyl)phenyl)amino)phenyl)-1,3,4-oxadiazole-2-carboxamide], the figure is 100 to 1000 nM; as for `NC1(c2nnc(-c3ccccc3Nc3ccc(C(F)(F)F)cc3)o2)CC1` [Compound 58, 2-(5-(1-aminocyclopropyl)-1,3,4-oxadiazol-2-yl)-N-(4-(trifluoromethyl)phenyl) aniline], 100 to 1000 nM; as for `O=C(O)C1(c2nnc(-c3ccccc3Nc3ccc(C(F)(F)F)cc3)o2)CC1` [Compound 166, 1-(5-(2-((4-(trifluoromethyl)phenyl)amino)phenyl)-1,3,4-oxadiazol-2-yl)cyclopropane-1-carboxylic Acid], less than 100 nM.
As to `O=C1OCC(c2nnc(-c3ccccc3Nc3ccc(C(F)(F)F)cc3)o2)O1` (stereo not drawn) [Compound 29, 4-[5-[2-[4-(trifluoromethyl)anilino]phenyl]-1,3,4-oxadiazol-2-yl]-1,3-dioxolan-2-one], the IC50 is less than 100 nM.
Same read-out and setting: as for `CC1(C)OCC(O)(c2nnc(-c3ccccc3Nc3ccc(C(F)(F)F)cc3)o2)CO1` [Compound 199, 2,2-dimethyl-5-(5-(2-((4-(trifluoromethyl)phenyl)amino)phenyl)-1,3,4-oxadiazol-2-yl)-1,3-dioxan-5-ol], the figure is 1000 to 5000 nM; as for `FC(F)(F)c1ccc(Nc2ccccc2-c2nnc(-c3cnco3)o2)cc1` [Compound 37, 2-(5-(oxazol-5-yl)-1,3,4-oxadiazol-2-yl)-N-(4-(trifluoromethyl)phenyl)aniline], 100 to 1000 nM.
Same read-out and setting: as for `C#CC(O)Cc1nnc(-c2ccccc2Nc2ccc(C(F)(F)F)cc2)o1` (stereo not drawn) [Compound 120, 1-(5-(2-((4-(trifluoromethyl)phenyl)amino)phenyl)-1,3,4-oxadiazol-2-yl)but-3-yn-2-ol], the figure is less than 100 nM.

The same assay, now with this note: Homo sapiens, HEK-293T; […]; 24-hr incubation; top concentration 3 μM; read-out: Firefly Luciferase IC50.
Take `CC(C)(C(=O)NCC#N)c1nnc(-c2ccccc2Nc2ccc(C(F)(F)F)cc2)o1` [Compound 110, N-(cyanomethyl)-2-methyl-2-(5-(2-((4-(trifluoromethyl)phenyl)amino)phenyl)-1,3,4-oxadiazol-2-yl)propanamide]: the IC50 was in the range of 1000 to 5000 nM.
Same read-out and setting: as for `CC#CCOc1nnc(-c2ccccc2Nc2ccc(C(F)(F)F)cc2)o1` [Compound 70, 2-(5-(but-2-yn-1-yloxy)-1,3,4-oxadiazol-2-yl)-N-(4-(trifluoromethyl)phenyl)aniline], the figure is 1000 to 5000 nM.

One may read the IC50 as the concentration at which inhibition is half-maximal.

The values are drawn from US11661403B2, “Oxadiazole compounds” (Vivace Therapeutics, Inc., priority 2018, dated 2023).
